# Data reported in PubChem BioAssay AID2842 (Southern Research Institute, 2010).
# System: M. tuberculosis H37Rv growth inhibition
# Test: Mycobacterium tuberculosis H37Rv growth inhibition, putative kinase inhibitor library, confirmatory dose response (AID 2842);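 further: bacteria incubated one week before Alamar blue readout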
row,Structure (SMILES),IC90 [µg/mL]
1,O=C(Nc1cccc(C(F)(F)F)c1)NC1CC(=O)N(c2ccc(F)cc2)C1 (configuration not stated),13.2
2,O=c1c2ccccc2oc2cc(O)ccc12,50
3,O=C(Nc1nc2c(s1)CCCC2)c1ccc(Cc2ccccc2)cc1,7.01
4,Fc1cccc2sc(Nc3nnc(-c4ccccc4Cl)o3)nc12,16.8
5,O=C(Nc1nnc(-c2cc(Cl)ccc2Cl)o1)c1ccccc1Cl,1.66
6,Cc1ccc(C)c(-c2nnc(NC(=O)c3ccccc3F)o2)c1,< 0.2
7,Cc1ccc2sc(N(CCCn3ccnc3)C(=O)c3ccc(F)cc3)nc2c1C,3.68
8,CN1CCc2c(sc(NC(=O)c3ccc4ccccc4c3)c2C(N)=O)C1,11.9
9,CCOc1cccc2sc(NC(=O)c3ccc(Cl)cc3Cl)nc12,11.6
10,O=C(Nc1nnc(-c2ccc(Br)cc2)o1)c1ccc2c(c1)CCCC2,16.8
11,CCSc1ccc(C(=O)Nc2nnc(-c3ccco3)o2)cc1,0.71
12,COc1ccccc1-c1nc(C(N)=O)c2[nH]c(=O)n(-c3ccc(C(C)(C)C)cc3)c2n1,9.91
13,CCOC(=O)c1c(NC(=O)c2cccc3ccccc23)sc2c1CCN(CC)C2,5.45
14,COc1ccc(C(=O)Nc2nnc(-c3ccc(C)cc3C)o2)cc1,23.6
15,Cc1ccc(-c2[nH]c3ccccc3c2SCCNC(=O)c2cc3ccccc3oc2=O)cc1,4
16,O=C(OCc1nc2ccccc2s1)c1ccc(C(=O)c2ccccc2)cc1,17.3
17,COc1ccc(Nc2nc(Nc3ccc(C)c(C)c3)nc3nccnc23)cc1,3.93
18,Cc1ccc(Cl)cc1N1CCN(CCn2c(C)c(C)n3c4c(=O)[nH]c(=O)n(C)c4nc23)CC1,49.7
19,O=C(CCSc1ccccc1)Nc1nnc(-c2ccccc2)o1,12.9

row,Structure (SMILES),IC90 [µg/mL]
1,COc1cc(OC)cc(C(=O)N(CCCn2ccnc2)c2nc3cc(C)cc(C)c3s2)c1,6.63
2,Cc1ccc2sc(N(CCCn3ccnc3)C(=O)c3ccco3)nc2c1C,0.58
3,CCCCOc1cccc(C(=O)Nc2nnc(-c3cc(C)ccc3C)o2)c1,12.4
4,CCOC(=O)c1cnc2ccc(OCC)cc2c1Nc1cccc(C)c1,14.1
5,Cc1ccc(C)c(-c2nnc(NC(=O)c3cccc([N+](=O)[O-])c3)o2)c1,29.6
6,O=C1N/C(=N/N=C/c2ccccc2O)SC1Cc1ccc(Cl)cc1Cl (configuration not stated),1.32
7,CCOc1ccc(-c2nnc3c4cc5c(cc4n(Cc4ccccc4OC)cc2-3)OCO5)cc1,9.22
8,Cc1ccc(C)c(-c2nnc(NC(=O)c3cccc(Br)c3)o2)c1,12.6
9,COc1ccc(CC(=O)N2CCN=C2SCc2ccc(C(F)(F)F)cc2)cc1,23.9
10,COc1ccc(Cl)c2sc(N(CCCn3ccnc3)C(=O)Cc3ccccc3)nc12,1.65
11,COC(=O)c1c(C)oc2ccc(OCC(=O)OC(C)C)cc12,7.05
12,Cc1ccc(-c2nnc(NC(=O)CCSc3ccccc3)o2)c(C)c1,15.1
13,COc1ccc(-c2nnc(NC(=O)c3ccc4c(c3)OCCO4)o2)c(OC)c1,24.7
14,COc1cccc(C(=O)Nc2nnc(-c3ccc(Cl)cc3)o2)c1,< 0.2
15,CCN1CCc2c(sc(NC(=O)c3sc4ccccc4c3Cl)c2C(N)=O)C1,10.6
16,COc1cc(C=NNC(=O)Nc2cccc(Cl)c2)ccc1O,8.5
17,O=C(Nc1nnc(-c2ccc3c(c2)OCCO3)o1)c1ccccc1Br,12.6
18,Cc1cc(C)c2nc(NNC(=O)c3nc4ccccc4s3)sc2c1,4.23
19,COc1ccccc1-c1nnc(NC(=O)c2sc3ccccc3c2Cl)o1,5.3

row,Structure (SMILES),IC90 [µg/mL]
1,Cc1ccc(NCCCn2c(C)c(C)n3c4c(=O)[nH]c(=O)n(C)c4nc23)c(C)c1,14.3
2,O=C(c1cccs1)N(CCCn1ccnc1)c1nc2ccc(F)cc2s1,3.01
3,O=C(Nc1nnc(-c2cc(Cl)ccc2Cl)o1)C1=COCCO1,25.7
4,O=C1N/C(=N\N=C\c2ccccc2O)SC1Cc1ccc(Br)cc1 (configuration not stated),1.14
5,Cc1ccc2[nH]c(=O)c(C3=NN(C(=O)c4ccco4)C(c4ccco4)C3)c(-c3ccccc3)c2c1 (configuration not stated),15.4
6,Cc1ccc(-c2nnc(NC(=O)c3ccccc3F)o2)c(C)c1,1.31
7,O=C(Nc1nnc(-c2ccco2)o1)c1cccc(Oc2ccccc2)c1,3.31
8,CCN1CCc2c(sc(NC(=O)c3ccccc3)c2-c2nc3ccccc3s2)C1,0.73
9,N#C/C(=C\c1c(Oc2ccccc2F)nc2ccccn2c1=O)C(N)=O,11.4
10,CC(C)(C)c1ccc(C(=O)Nc2nc(-c3ccc4c(c3)OCO4)cs2)cc1,6.72
11,Cc1nc2ccccc2c(=O)n1-c1cccc(NC(=O)c2cc([N+](=O)[O-])cc([N+](=O)[O-])c2)c1,27.8
12,Fc1cc(F)c2nc(N3CCCC3)sc2c1,18.2
13,CC(C)c1ccc(-c2csc(NC(=O)c3ccc4c(c3)OCCO4)n2)cc1,3.39
14,O=C(Nc1nnc(-c2ccc(Cl)cc2)o1)c1ccc(Br)cc1,3.26
15,COc1ccc(C2c3cccn3CCN2C(=O)Nc2ccc(Cl)cc2)cc1 (configuration not stated),9.87
16,Cc1nc2ccc(NC(=O)Nc3cccc(Cl)c3)cc2s1,22.3
17,COc1cccc(Nc2nc3ccc(OC)cc3s2)c1,23.3
18,CCOC(=O)COc1ccc(/C=C2\Oc3cc(OC)ccc3C2=O)cc1,3.32
19,Cc1ccc2nc(NNC(=O)c3cccc(F)c3)sc2c1,7.65
